Converted amounts (≈) assume the structure as drawn. Where two headings read alike, the source gives them in different places.

Common to all, as to test: In vitro antibacterial activity test (broth microdilution)
Common to all, as to format: cell-based

One assay concerns K. pneumoniae 2011E. The settings on record: Klebsiella pneumoniae, 2011E. The method, boiled down: (§1)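 Compounds were dissolved in DMSO at 10,240 ug/mL stock, diluted two-fold in DMSO and then twenty-fold in sterile water. Final test concentrations spanned 0.0626 to 128 ug/mL with 2.5% (V/V) DMSO, and MIC90 was read by CLSI broth microdilution.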
The subject of another assay is A. baumannii 52. The note with it: Acinetobacter baumannii. The method, boiled down: as §1
The test system of assay [1] is A. calcoaceticus ATCC15473. The settings on record: Acinetobacter calcoaceticus. The method, boiled down:
as §1

A further assay relates to P. aeruginosa 1912E. The note with it: Pseudomonas aeruginosa, 1912E. The method, boiled down: as §1
The test system of the next assay is K. pneumoniae β9. The note with it: Klebsiella pneumoniae. In a few lines: as §1
A further assay deals with E. coli AG100. The settings on record: Escherichia coli. The method, boiled down: as §1
The subject of the next assay is M. catarrhalis 2524. The note with it: Moraxella catarrhalis. In a few lines: as §1
In another assay the test system is K. pneumoniae β10. The note with it: Klebsiella pneumoniae. The method, boiled down: as §1
A further assay has as its system P. aeruginosa 43. The note with it: Pseudomonas aeruginosa. In a few lines: as §1
The next assay has as its system K. pneumoniae β14. The settings on record: Klebsiella pneumoniae. In a few lines: as §1
A further assay has as its system A. baumannii 46. The method, boiled down: as §1
Another assay deals with K. pneumoniae β11. The settings on record: Klebsiella pneumoniae. The method, boiled down:
as §1

The subject of another assay is P. aeruginosa 6065Y. The settings on record: Pseudomonas aeruginosa. In a few lines:
as §1

The next assay has as its system E. cloacae β19. The settings on record: Enterobacter cloacae. The method, boiled down: as §1
In a further assay the test system is A. baumannii 49. The method, boiled down: as §1
A further assay deals with K. pneumoniae β13. The settings on record: Klebsiella pneumoniae. The method, boiled down: as §1
The test system of the next assay is P. aeruginosa 40. In a few lines:
as §1

The next assay relates to E. coli β4. The note with it: Escherichia coli. In a few lines:
as §1

Another assay concerns P. aeruginosa 37. The note with it: Pseudomonas aeruginosa, 37, P. aeruginosa 37. The method, boiled down:
as §1

[2] abbreviates: K. pneumoniae 2011E, read-out: MIC90.
Setting [3] is: A. baumannii 52, read-out: MIC90.
Setting [4] is: A. calcoaceticus ATCC15473, read-out: MIC90.
The mark [5] stands for this setting: K. pneumoniae β9, read-out: MIC90.
The mark [6] stands for this setting: AG100, E. coli AG100, read-out: MIC90.
Where [7] appears, read: M. catarrhalis 2524, read-out: MIC90.
The mark [8] stands for this setting: K. pneumoniae β10, read-out: MIC90.
The mark [9] stands for this setting: P. aeruginosa 43, read-out: MIC90.
The mark [10] stands for this setting: Acinetobacter baumannii, A. baumannii 46, read-out: MIC90.
[11] abbreviates: K. pneumoniae β11, read-out: MIC90.
Where [12] appears, read: Acinetobacter baumannii, A. baumannii 49, read-out: MIC90.
Where [13] appears, read: K. pneumoniae β13, read-out: MIC90.
Where [14] appears, read: Pseudomonas aeruginosa, 40, P. aeruginosa 40, read-out: MIC90.

With `C[C@H](O/N=C(\C(=O)N[C@@H]1C(=O)N2C(C(=O)[O-])=C(C[n+]3cnc(NCCN)c(NCCNC(=O)c4cc(=O)c(O)cn4O)c3)CSC12)c1nc(N)sc1Cl)C(=O)O` (stereo partly shown) [Compound 21], the MIC90 (as a rule, an inhibitory concentration at the 90% level, which refers to growth in some studies and to a panel of isolates in others) is 4 µg/mL (≈ 4.78 µM) with K. pneumoniae 2011E; 2 µg/mL (≈ 2.39 µM) in the assay on A. baumannii 52 (52); 1 µg/mL (≈ 1.19 µM) in assay [1] (ATCC15473, A. calcoaceticus ATCC15473); 4 µg/mL (≈ 4.78 µM) against P. aeruginosa 1912E; 2 µg/mL (≈ 2.39 µM) against K. pneumoniae β9; 0.5 µg/mL (≈ 0.597 µM) with E. coli AG100 (AG100). The MIC90 against M. catarrhalis 2524 (2524) was found to be 0.125 µg/mL (≈ 0.149 µM); against K. pneumoniae β10 it was 2 µg/mL (≈ 2.39 µM); against P. aeruginosa 43 (43), 2 µg/mL (≈ 2.39 µM); against K. pneumoniae β14, 16 µg/mL (≈ 19.1 µM); in the assay on A. baumannii 46 (Acinetobacter baumannii, 46, A. baumannii 46) it was 16 µg/mL (≈ 19.1 µM); in the assay on K. pneumoniae β11, 8 µg/mL (≈ 9.56 µM). Also, the MIC90 with P. aeruginosa 6065Y (6065Y) is 4 µg/mL (≈ 4.78 µM); against E. cloacae β19 it was 16 µg/mL (≈ 19.1 µM); in the assay with A. baumannii 49 (Acinetobacter baumannii, 49, A. baumannii 49) it was 8 µg/mL (≈ 9.56 µM); in the assay with K. pneumoniae β13, 2 µg/mL (≈ 2.39 µM); with P. aeruginosa 40 (Pseudomonas aeruginosa, 40), 8 µg/mL (≈ 9.56 µM); against E. coli β4 it was 4 µg/mL (≈ 4.78 µM). The molecule further yielded an MIC90 with P. aeruginosa 37 of 32 µg/mL (≈ 38.2 µM).

On to `CC(C)(O/N=C(\C(=O)N[C@@H]1C(=O)N2C(C(=O)[O-])=C(C[n+]3cnc(N)c(NC(=O)c4cc(=O)c(O)cn4O)c3)CSC12)c1nc(N)sc1Cl)C(=O)O` (stereo partly shown) [Compound 22], for which the MIC90 with K. pneumoniae 2011E (setting [2]) is 16 µg/mL (≈ 20.9 µM); with A. baumannii 52 (setting [3]), 2 µg/mL (≈ 2.61 µM); in assay [1] (setting [4]), 0.5 µg/mL (≈ 0.653 µM); in the assay with P. aeruginosa 1912E (read-out: MIC90) it was 2 µg/mL (≈ 2.61 µM); in the assay on K. pneumoniae β9 (setting [5]) it was 8 µg/mL (≈ 10.5 µM); in the assay with E. coli AG100 (setting [6]), 2 µg/mL (≈ 2.61 µM). The MIC90 with M. catarrhalis 2524 (setting [7]) was 0.5 µg/mL (≈ 0.653 µM); in the assay on K. pneumoniae β10 (setting [8]), 1 µg/mL (≈ 1.31 µM); in the assay with P. aeruginosa 43 (setting [9]) it was 0.5 µg/mL (≈ 0.653 µM); in the assay with K. pneumoniae β14 (read-out: MIC90) it was 128 µg/mL (≈ 167 µM); in the assay with A. baumannii 46 (setting [10]), 128 µg/mL (≈ 167 µM); in the assay with K. pneumoniae β11 (setting [11]) it was 64 µg/mL (≈ 83.6 µM). Further, the MIC90 in the assay on P. aeruginosa 6065Y (read-out: MIC90) was 2 µg/mL (≈ 2.61 µM); in the assay on E. cloacae β19 (read-out: MIC90), 32 µg/mL (≈ 41.8 µM); with A. baumannii 49 (setting [12]), 16 µg/mL (≈ 20.9 µM); with K. pneumoniae β13 (setting [13]) it was 2 µg/mL (≈ 2.61 µM); in the assay with P. aeruginosa 40 (setting [14]) it was 2 µg/mL (≈ 2.61 µM); with E. coli β4 (read-out: MIC90) it was 32 µg/mL (≈ 41.8 µM). The MIC90 in the assay with P. aeruginosa 37 (read-out: MIC90) came out at 1 µg/mL (≈ 1.31 µM).

Regarding `CC(C)(O/N=C(\C(=O)N[C@@H]1C(=O)N2C(C(=O)[O-])=C(/C=C/C[n+]3cnc(N)c(NCCCCNC(=O)c4cc(=O)c(O)cn4O)c3)CSC12)c1csc(N)n1)C(=O)O` (stereo partly shown) [Compound 23], the MIC90 in the assay on K. pneumoniae 2011E (setting [2]) was 1 µg/mL (≈ 1.21 µM); with A. baumannii 52 (setting [3]), greater than 128 µg/mL; in [1] (setting [4]), 1 µg/mL (≈ 1.21 µM); in the assay on P. aeruginosa 1912E (read-out: MIC90) it was 1 µg/mL (≈ 1.21 µM); in the assay with K. pneumoniae β9 (setting [5]), less than 0.0625 µg/mL; in the assay on E. coli AG100 (setting [6]), less than 0.0625 µg/mL. For the same molecule, the MIC90 was 0.25 µg/mL (≈ 0.302 µM) with M. catarrhalis 2524 (setting [7]); less than 0.0625 µg/mL in the assay with K. pneumoniae β10 (setting [8]); 1 µg/mL (≈ 1.21 µM) in the assay with P. aeruginosa 43 (setting [9]); 4 µg/mL (≈ 4.83 µM) with K. pneumoniae β14 (read-out: MIC90); 4 µg/mL (≈ 4.83 µM) with A. baumannii 46 (setting [10]); 64 µg/mL (≈ 77.3 µM) in the assay with K. pneumoniae β11 (setting [11]). In addition, the MIC90 with P. aeruginosa 6065Y (read-out: MIC90) was 2 µg/mL (≈ 2.42 µM); with E. cloacae β19 (read-out: MIC90) it was 2 µg/mL (≈ 2.42 µM); with A. baumannii 49 (setting [12]), greater than 128 µg/mL; in the assay with K. pneumoniae β13 (setting [13]) it was less than 0.0625 µg/mL; in the assay with P. aeruginosa 40 (setting [14]), 0.5 µg/mL (≈ 0.604 µM); in the assay on E. coli β4 (read-out: MIC90), less than 0.0625 µg/mL. Moreover, in the assay with P. aeruginosa 37 (read-out: MIC90), the MIC90 was determined as 0.25 µg/mL (≈ 0.302 µM).

As for `C[C@H](O/N=C(\C(=O)N[C@@H]1C(=O)N2C(C(=O)[O-])=C(/C=C/C[n+]3cnc(N)c(NCCNC(=O)c4cc(=O)c(O)cn4O)c3)CSC12)c1nc(N)sc1Cl)C(=O)O` (stereo partly shown) [Compound 24], the MIC90 is 0.5 µg/mL (≈ 0.61 µM) in the assay with K. pneumoniae 2011E (setting [2]); 16 µg/mL (≈ 19.5 µM) in the assay on A. baumannii 52 (setting [3]); 0.5 µg/mL (≈ 0.61 µM) in assay [1] (setting [4]); 0.25 µg/mL (≈ 0.305 µM) in the assay on P. aeruginosa 1912E (read-out: MIC90); less than 0.0625 µg/mL with K. pneumoniae β9 (setting [5]); less than 0.0625 µg/mL in the assay with E. coli AG100 (setting [6]). Also, the MIC90 was less than 0.0625 µg/mL in the assay with M. catarrhalis 2524 (setting [7]); less than 0.0625 µg/mL in the assay on K. pneumoniae β10 (setting [8]); 0.25 µg/mL (≈ 0.305 µM) in the assay on P. aeruginosa 43 (setting [9]); 4 µg/mL (≈ 4.88 µM) with K. pneumoniae β14 (read-out: MIC90); 2 µg/mL (≈ 2.44 µM) in the assay with A. baumannii 46 (setting [10]); 2 µg/mL (≈ 2.44 µM) in the assay with K. pneumoniae β11 (setting [11]). Besides, the MIC90 was 0.5 µg/mL (≈ 0.61 µM) with P. aeruginosa 6065Y (read-out: MIC90); 0.5 µg/mL (≈ 0.61 µM) in the assay on E. cloacae β19 (read-out: MIC90); 32 µg/mL (≈ 39 µM) with A. baumannii 49 (setting [12]); 0.125 µg/mL (≈ 0.152 µM) with K. pneumoniae β13 (setting [13]); 0.25 µg/mL (≈ 0.305 µM) in the assay with P. aeruginosa 40 (setting [14]); less than 0.0625 µg/mL in the assay on E. coli β4 (read-out: MIC90). In addition, in the assay on P. aeruginosa 37 (read-out: MIC90), the MIC90 was less than 0.0625 µg/mL.

Values taken from patent US9630977B2, “Cephalosporin derivatives and pharmaceutical compositions thereof” (Legochem Biosciences, Inc., priority 2011, dated 2017).
